Assay results reported in patent publication US9655982B2, “Formation and uses of europium complexes” (Wayne State University, priority 2010, dated 2017).
Several values for one entry are separate records, joined by “and”; a condition that tells them apart may be missing. Identical values can stand only once. Entries after “also recorded” stand apart in the source; their conditions may differ. Each block holds one compound with its values, some of them ahead of it.

Assay: Cyclic voltammetry: anodic peak potentials of aqueous Eu(II) cryptates vs ferrocene/ferrocenium (oxidative stability)
Format: physicochemical
Settings: for Anodic peak potentials (Epa) with respect to ferrocene/ferrocenium (Fc/Fc+): aqueous MOPS 0.01 M pH 7.5, Et4NClO4 0.05 M, Ar, ambient temperature, scan rate 150 mV/s, mean ± standard error; for Increase in oxidative stability of Eu(II) compared to cryptand 3: difference in anodic peak potential, Eu(II) complex of the cryptand
Source text: To synthesize the diverse set of cryptands 2 and 4-6, a three-step procedure was devised that involved common intermediates 7, 9, and 11 (Scheme 1). Briefly, the synthesis involved the conversion of the appropriate ethylenediols or catechols to the corresponding ditosylates (7, 9, and 11) followed by ring closure with 1,4,10,13-tetraoxa-7,16-diazacyclooctadecane, 2,2′-(ethylenedioxy)bis(ethylamine) or 1,4,10,13-tetrathia-7,16-diazacyclooctadecane.
To synthesize the diverse set of cryptands 1-6, a three-step procedure was devised that involved common intermediates 7, 9, and 11 (Scheme 1). Briefly, the synthesis involved the conversion of the appropriate ethylenediols or catechols to the corresponding ditosylates (7, 9, and 11) followed by ring closure with 1,4,10,13-tetraoxa-7,16-diazacyclooctadecane, 2,2′-(ethylenedioxy)bis(ethylamine), or 1,4,10,13-tetrathia-7,16-diazacyclooctadecane. […] The resulting solution was placed in a standard three-electrode cell (glassy-carbon working electrode, Pt-wire auxiliary electrode, and Ag/AgCl (1.0 M KCl) reference electrode). The potential at the carbon electrode was held at −0.8 V (vs Ag/AgCl) while stirring to produce Eu^II in situ for metalation.
^1H NMR spectra were obtained using a Varian Unity 300 (300 MHz) spectrometer and a Mercury 400 (400 MHz) spectrometer, ^13C NMR spectra were obtained using a Varian Unity 300 (75 MHz) spectrometer and a Mercury 400 (101 MHz) spectrometer. ^19F NMR spectra were obtained using Varian Unity 300 (282 MHz) spectrometer. […] NMR data are assumed to be first order, and the apparent multiplicity is reported as “s”=singlet, “d”=doublet, “dd”=doublet of doublets, “t”=triplet, “td”=triplet of doublets, “q”=quartet, “m”=multiplet, or “brs”=broad singlet. Italicized elements are those that are responsible for the shifts. High-resolution electrospray ionization mass spectra (HRESIMS) were obtained on an electrospray time-of-flight high-resolution Waters Micromass LCT Premier XE mass spectrometer. Cyclic voltammetric analyses were performed using a WaveNow USB potentiostat (Pine Research Instrumentation). A standard three-electrode cell was used with a glassy-carbon working electrode, a Pt-wire auxiliary electrode, and a Ag/AgCl reference electrode (1.0 M KCl). All electrochemical experiments were performed under an Ar atmosphere at ambient temperature with Et4NClO4 (0.05 M) as the supporting electrolyte, an aqueous solution of 3-(N-morpholino)propanesulfonic acid (MOPS, 0.01 M, pH 7.5) as the solvent, and the ferrocene/ferrocinium (Fc/Fc+) redox couple as an internal standard. From the initial potential of the analysis (−1.5 V), the voltage was ramped to 0.75 V and back to −1.5 V at a scan rate of 150 mV/s. […] After each measurement, ferrocene (6.7 mM in acetonitrile) was added to the sample (0.13 mM ferrocene after addition) and the measurement was repeated to enable referencing to Fc/Fc+.
To an aqueous solution of 3-(N-morpholino)propanesulfonic acid (MOPS) (0.01 M, pH 7.5), Et4NClO4 (0.05 M), and Eu(NO3)3.5H2O (1.1 mM, 1 equiv) was added a solution of the desired cryptand (12 mM, 1.2 equiv) in acetonitrile, and the resulting mixture was sparged with Ar for 5 minutes. The potential of the resulting solution was held at −0.8 V (30 minutes per 0.01 mmol of Eu(NO3)3.5H2O) while stirring under constant sparging with Ar. Immediately after holding the potential at −0.8 V, cyclic voltammograms were obtained in the potential range of −1.5 to 0.75 V at a scan rate of 150 mV/s. After acquiring the voltammogram, ferrocene (6.7 mM in acetonitrile, 0.1 equiv) was added, and another cyclic voltammogram was obtained. These cyclic voltammetric experiments were repeated 3-6 times for each ligand.

Compound: hemoglobin: Human hemoglobin from RayBiotech Inc.; Fe(II) oxidation used as biological comparison [reference compound]
Anodic peak potentials (Epa) with respect to ferrocene/ferrocenium (Fc/Fc+): −0.070 ± 0.003 V vs, Fc/Fc^+

Compound: O=[N+]([O-])[O-].O=[N+]([O-])[O-].O=[N+]([O-])[O-].[Eu+3] [Eu(NO3)3, reference compound]
Anodic peak potentials (Epa) with respect to ferrocene/ferrocenium (Fc/Fc+): −0.701 ± 0.030 V vs, Fc/Fc^+

Compound: Fc1ccc2c(c1)OCCN1CCOCCOCCN(CCOCCOCC1)CCO2 [4-Eu]
Oxidative stability compared to hemoglobin (in words) (Fe(II) in hemoglobin, p=0.64, p=0.45): statistically identical; also recorded: not different
Anodic peak potentials (Epa) with respect to ferrocene/ferrocenium (Fc/Fc+): −0.079 ± 0.007 V vs, Fc/Fc^+

Compound: c1ccc2c(c1)OCCN1CCSCCSCCN(CCO2)CCSCCSCC1 [6-Eu]
Anodic peak potentials (Epa) with respect to ferrocene/ferrocenium (Fc/Fc+): −0.035 ± 0.010 V vs, Fc/Fc^+

Compound: CC1(C)OCCN2CCOCCOCCN(CCOC1(C)C)CCOC(C)(C)C(C)(C)OCC2 [cryptand 2, 5,5,6,6,14,14,15,15-Octamethyl-4,7,13,16,21,24-hexaoxa-1,10-diazabicyclo[8.8.8]hexacosane]
Oxidative stability compared to unmodified cryptand 1 (in words) (cyclic voltammetric data of Eu-containing solutions): increased oxidative stability

Now from value to compound:

Oxidative potential more positive than hemoglobin (Fe^2+/3+) (cryptand with Eu(II)): 35 mV
Oxidative potential more positive than the Eu aqua ion (cryptand with Eu(II)): 666 mV
Increase in oxidative stability of Eu(II) compared to cryptand 3: 173 mV
Compound: c1ccc2c(c1)OCCN1CCSCCSCCN(CCO2)CCSCCSCC1 [cryptand 6, 5,6-Benzo-4,7-dioxa-13,16,21,24-tetrathia-1,10-diazabicyclo[8.8.8]hexacos-5-ene]

Increase in oxidative stability of Eu(II) compared to cryptand 3: 133 mV and 129 mV
Compound: Fc1ccc2c(c1)OCCN1CCOCCOCCN(CCOCCOCC1)CCO2 [cryptand 4, 5,6-(4-Fluorobenzo)-4,7,13,16,21,24-hexaoxa-1,10-diazabicyclo[8.8.8]hexacos-5-ene]

Anodic peak potential compared to mono-phenyl substituted cryptand 3 (in words) (p=0.76): no significant difference
Compound: c1ccc2c(c1)OCCN1CCOCCOCCN(CCO2)CCOc2ccccc2OCC1 [cryptand 5, 5,6,14,15-Dibenzo-4,7,13,16,21,24-hexaoxa-1,10-diazabicyclo[8.8.8]hexacosane]
